Test results from ChEMBL document CHEMBL1128882, “Novel lignan derivatives as selective inhibitors of DNA topoisomerase II” (1995).
Activity calls are given as the source filed them. The rule behind the calls is not given here.

Key:
[1] = target: DNA topoisomerase 2-beta (Homo sapiens) (UniProt Q02880); assay: In vitro inhibition of DNA topoisomerase II activity (DNA unknotting) at a concentration of 50 uM
KB [2] = assay: In vitro cellular protein-DNA complex formation at a concentration of 50 uM; no activity; format: functional, cell-based; conditions: Homo sapiens
KB [3] = assay: In vitro topoisomerase II -DNA complex formation at a concentration of 50 uM; no activity; format: functional, cell-based; conditions: Homo sapiens
[4] = target: T1, DNA topoisomerase 1 (Homo sapiens) (UniProt P11387); assay: In vitro inhibition of DNA topoisomerase I activity (ATP-independent DNA relaxation) at a concentration of 50 uM
T1 sequence (whole entry): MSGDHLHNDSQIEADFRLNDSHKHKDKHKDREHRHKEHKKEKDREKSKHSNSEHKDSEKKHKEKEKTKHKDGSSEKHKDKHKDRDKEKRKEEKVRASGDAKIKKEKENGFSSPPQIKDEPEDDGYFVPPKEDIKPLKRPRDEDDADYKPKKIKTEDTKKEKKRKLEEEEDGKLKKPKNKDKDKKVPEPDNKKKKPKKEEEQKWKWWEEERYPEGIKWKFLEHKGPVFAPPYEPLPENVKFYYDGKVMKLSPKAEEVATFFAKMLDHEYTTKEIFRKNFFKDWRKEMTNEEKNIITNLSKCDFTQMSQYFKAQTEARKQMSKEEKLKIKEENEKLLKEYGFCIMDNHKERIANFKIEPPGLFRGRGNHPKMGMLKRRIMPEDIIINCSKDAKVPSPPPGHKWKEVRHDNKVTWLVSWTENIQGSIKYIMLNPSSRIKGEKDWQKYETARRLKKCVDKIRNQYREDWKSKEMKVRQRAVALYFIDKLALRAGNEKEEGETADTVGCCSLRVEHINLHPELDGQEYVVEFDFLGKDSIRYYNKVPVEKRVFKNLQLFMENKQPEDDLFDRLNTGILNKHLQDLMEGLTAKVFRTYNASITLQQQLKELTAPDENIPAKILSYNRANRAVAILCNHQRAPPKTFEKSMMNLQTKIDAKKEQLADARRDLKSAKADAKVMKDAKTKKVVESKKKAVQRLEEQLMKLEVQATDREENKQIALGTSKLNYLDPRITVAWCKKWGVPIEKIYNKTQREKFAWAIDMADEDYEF

[5] = target: T1, DNA topoisomerase 1 (Homo sapiens); assay: In vitro inhibition of DNA topoisomerase I activity (ATP-independent DNA relaxation) at a concentration of 50 uM; no activity
KB [6] = assay: In vitro topoisomerase II -DNA complex formation at a concentration of 50 uM; format: functional, Homo sapiens
KB [7] = assay: In vitro cellular protein-DNA complex formation at a concentration of 50 uM; format: functional, Homo sapiens
KB [8] = assay: In vitro topoisomerase II -DNA complex formation at a concentration of 10 uM; no activity; format: functional, cell-based; conditions: Homo sapiens
KB [9] = assay: In vitro topoisomerase II -DNA complex formation at a concentration of 100 uM; no activity; format: functional, cell-based; conditions: Homo sapiens
KB [10] = assay: In vitro topoisomerase II -DNA complex formation at a concentration of 1 uM; no activity; format: functional, cell-based; conditions: Homo sapiens

Sequence of DNA topoisomerase 2-beta (Homo sapiens) (Q02880 whole entry): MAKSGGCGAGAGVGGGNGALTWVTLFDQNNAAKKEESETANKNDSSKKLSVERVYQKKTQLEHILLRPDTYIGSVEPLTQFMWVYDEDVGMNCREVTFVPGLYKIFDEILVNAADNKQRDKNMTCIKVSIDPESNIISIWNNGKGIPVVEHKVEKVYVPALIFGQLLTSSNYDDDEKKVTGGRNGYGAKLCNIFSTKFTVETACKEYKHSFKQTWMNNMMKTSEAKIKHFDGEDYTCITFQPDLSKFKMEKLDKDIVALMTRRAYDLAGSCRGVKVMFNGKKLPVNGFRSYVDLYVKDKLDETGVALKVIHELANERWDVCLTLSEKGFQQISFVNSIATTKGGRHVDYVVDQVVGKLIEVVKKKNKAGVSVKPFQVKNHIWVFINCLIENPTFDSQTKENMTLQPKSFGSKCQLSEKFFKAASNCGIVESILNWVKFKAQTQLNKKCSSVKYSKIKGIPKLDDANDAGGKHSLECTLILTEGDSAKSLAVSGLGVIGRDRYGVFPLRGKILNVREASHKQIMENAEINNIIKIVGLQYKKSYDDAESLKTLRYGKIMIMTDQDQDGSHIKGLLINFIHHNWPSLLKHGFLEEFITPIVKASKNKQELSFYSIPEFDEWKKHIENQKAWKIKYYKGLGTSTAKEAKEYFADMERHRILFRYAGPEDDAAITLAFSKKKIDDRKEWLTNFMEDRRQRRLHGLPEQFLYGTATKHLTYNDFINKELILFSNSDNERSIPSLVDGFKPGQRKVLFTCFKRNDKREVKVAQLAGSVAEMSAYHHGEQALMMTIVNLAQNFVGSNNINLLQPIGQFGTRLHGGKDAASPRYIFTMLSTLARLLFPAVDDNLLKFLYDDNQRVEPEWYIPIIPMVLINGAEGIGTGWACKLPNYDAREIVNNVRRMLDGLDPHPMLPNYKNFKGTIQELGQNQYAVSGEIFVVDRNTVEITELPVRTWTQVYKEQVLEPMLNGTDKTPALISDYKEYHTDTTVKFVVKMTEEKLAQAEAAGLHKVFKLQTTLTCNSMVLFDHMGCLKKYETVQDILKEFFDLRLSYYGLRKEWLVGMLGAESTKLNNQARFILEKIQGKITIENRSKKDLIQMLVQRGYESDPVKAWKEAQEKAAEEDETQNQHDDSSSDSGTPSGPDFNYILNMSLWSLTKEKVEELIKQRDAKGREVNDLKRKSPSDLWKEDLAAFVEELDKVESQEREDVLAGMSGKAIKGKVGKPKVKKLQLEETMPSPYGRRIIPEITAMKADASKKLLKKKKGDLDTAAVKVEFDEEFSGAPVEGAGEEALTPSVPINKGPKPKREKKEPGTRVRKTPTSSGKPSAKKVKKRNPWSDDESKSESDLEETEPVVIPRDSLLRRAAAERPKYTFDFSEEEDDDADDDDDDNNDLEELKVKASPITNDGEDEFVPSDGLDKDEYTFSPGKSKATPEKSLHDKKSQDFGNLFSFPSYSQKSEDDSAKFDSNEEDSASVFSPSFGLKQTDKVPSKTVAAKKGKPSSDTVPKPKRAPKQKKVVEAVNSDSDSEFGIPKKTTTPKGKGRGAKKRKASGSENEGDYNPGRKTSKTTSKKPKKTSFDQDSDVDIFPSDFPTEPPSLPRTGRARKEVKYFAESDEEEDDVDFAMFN

| inhibition [1] [%] | Complex formation (KB [3]) | inhibition [4] [%] | inhibition [5] | Complex formation (KB [8]) | Complex formation (KB [9]) | Complex formation (KB [10]) | Compound | Complex formation (KB [2]) | Complex formation (KB [6]) [%] | Complex formation (KB [7]) [%] |
| --- | --- | --- | --- | --- | --- | --- | --- | --- | --- | --- |
|  |  |  | inactive |  |  |  | COc1cc([C@@H]2c3cc4c(cc3[C@@H](O[C@@H]3O[C@@H]5CO[C@@H](C)O[C@H]5[C@H](O)[C@H]3O)[C@H]3COC(=O)[C@H]23)OCO4)cc(OC)c1O [ETOPOSIDE] |  | 100 | 100 |
| 100 | No activity |  | inactive |  |  |  | COC(=O)C1=Cc2cc(O)c(O)cc2[C@@H](c2ccc(O)c(O)c2)[C@@H]1C(=O)OC | No activity |  |  |
| 100 | No activity |  | inactive | No activity | No activity | No activity | O=C(O[C@@H]1C[C@](O)(C(=O)O)C[C@@H](O)[C@H]1O)C1=Cc2cc(O)c(O)cc2[C@H](c2ccc(O)c(O)c2)[C@H]1C(=O)O[C@@H]1C[C@](O)(C(=O)O)C[C@@H](O)[C@H]1O | No activity |  |  |

Second part, the compound before the results:

| Compound | inhibition [1] [%] | Complex formation (KB [3]) | inhibition [4] [%] | inhibition [5] | Complex formation (KB [8]) | Complex formation (KB [9]) | Complex formation (KB [10]) | Complex formation (KB [2]) | Complex formation (KB [6]) [%] | Complex formation (KB [7]) [%] |
| --- | --- | --- | --- | --- | --- | --- | --- | --- | --- | --- |
| O=C(O[C@H](Cc1ccc(O)c(O)c1)C(=O)O)C1=Cc2cc(O)c(O)cc2[C@H](c2ccc(O)c(O)c2)[C@H]1C(=O)O[C@H](Cc1ccc(O)c(O)c1)C(=O)O | 100 | No activity | 100 |  |  |  |  | No activity |  |  |
| O=C(O)C1=Cc2cc(O)c(O)cc2[C@@H](c2ccc(O)c(O)c2)[C@@H]1C(=O)O | 100 |  | 100 |  |  |  |  |  |  |  |
| O=C(O[C@H](Cc1ccc(O)c(O)c1)C(=O)O)C1=Cc2cc(O)c(O)cc2[C@@H](c2ccc(O)c(O)c2)[C@@H]1C(=O)O[C@H](Cc1ccc(O)c(O)c1)C(=O)O | 100 | No activity | 100 |  |  |  |  | No activity |  |  |
| O=C(O[C@@H]1C[C@](O)(C(=O)O)C[C@@H](O)[C@H]1O)C1=Cc2cc(O)c(O)cc2[C@@H](c2ccc(O)c(O)c2)[C@@H]1C(=O)O[C@@H]1C[C@](O)(C(=O)O)C[C@@H](O)[C@H]1O | 100 | No activity |  | inactive | No activity | No activity | No activity | No activity |  |  |
| O=C1OC(c2ccc(O)c(O)c2)C2C(=O)OC(c3ccc(O)c(O)c3)C12 (stereo not drawn) | 100 |  | 100 |  |  |  |  |  |  |  |
